Test results reported in the supplement of paper PMC11208160.

Assay: recombinant UMI read abundance after kanamycin selection (control-corrected) (log10(CPM+1)); higher = more efficient recombination; extreme values may be limits of the assay; sequences stand for … in AGTGCAGAGAAAATCGGCCAGTTTTCTCTGCCTGCAGTCCGCATGCCGTGGGACCCCTTGGGTTCTAACCTGTTGCCTAGATTTATGCAGCGGACTGCCTTTCTCCCAAAGTGATAAACCGG…AGGTTGGTTTCACT; site = the 11-nt donor
Summary of the method: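 Under IPTG (0.07 mM) plus kanamycin, or without selection, Escherichia coli carrying a UMI-tagged donor and donor-binding-loop pair library and a target plasmid for the IS621 bridge recombinase were plated in two replicates. Recombinant UMIs were PCR-amplified across the donor–target junction and sequenced. Counts were converted to CPM, averaged over replicates, scaled by control-derived factors and reported as log10(CPM+1).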
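Also: IS621 bridge recombinase in Escherichia coli cells against a fixed T5 target plasmid.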

Compared with “AGGTGGCCATGGACCGGTTTTCCCGGTAATCCGTATTTGCC (site AGGTGGCCTGG)”, “AGGTTCACATGGACCGGTTTTCCCGGTAATCCGTATTTGCC (site AGGTTCACTGG)” is higher in “recombinant UMI read abundance (log10)” value: 0 for the first, 2.11 for the second.

“AGGTTCCCATGGACCGGTTTTCCCGGTAATCCGTATTTGGG (site AGGTTCCCTCA)” and “AGGTTCCCATGGACCGGTTTTCCCGGTAATCCGTATTTGGG (site AGGTTCCCTCC)” are within 0.2 log units of each other in “recombinant UMI read abundance (log10)” value: 0.0189 for the first, 0.0153 for the second.

“AGGTTCCCATGGACCGGTTTTCCCGGTAATCCGTATTTGGG (site AGGTTCCCTCG)” and “AGGTTCCCATGGACCGGTTTTCCCGGTAATCCGTATTTGGG (site AGGTTCCCTCT)” are within 0.2 log units of each other in “recombinant UMI read abundance (log10)” value: 0.0155 for the first, 0.0453 for the second.

Compared with “AGTAAAGCATGGACCGGTTTTCCCGGTAATCCGTATTTGCA (site AGTAAAGCTTG)”, “AGTAACGCATGGACCGGTTTTCCCGGTAATCCGTATTTGGT (site AGTAACGCTAC)” is lower in “recombinant UMI read abundance (log10)” value: 1.97 for the first, 1.7 for the second.

Going from “AGTAAGACATGGACCGGTTTTCCCGGTAATCCGTATTTGAA (site AGGAAGACTTG)” to “AGTAAGACATGGACCGGTTTTCCCGGTAATCCGTATTTGAA (site AGTAAGACTTT)”, the “recombinant UMI read abundance (log10)” value rises from 0 to 1.27.

First: AGTAAGACATGGACCGGTTTTCCCGGTAATCCGTATTTGTC (site AGTAAGACTGA)
Second: AGTAAGCCATGGACCGGTTTTCCCGGTAATCCGTATTTGCA (site AGGAAGACTTG)
The “recombinant UMI read abundance (log10)” value of the first is higher: 1.36 for the first, 0 for the second.

Going from “AGTAAGCCATGGACCGGTTTTCCCGGTAATCCGTATTTGCA (site AGTAAGCCTTG)” to “AGTAAGGCATGGACCGGTTTTCCCGGTAATCCGTATTTGCT (site AGAAAGGCTAG)”, the “recombinant UMI read abundance (log10)” value rises from 0.539 to 1.39.

Going from “AGTAAGGCATGGACCGGTTTTCCCGGTAATCCGTATTTGCT (site AGCAAGGCTAG)” to “AGTAAGGCATGGACCGGTTTTCCCGGTAATCCGTATTTGCT (site AGGAAGGCTAG)”, the “recombinant UMI read abundance (log10)” value falls from 1.21 to 0.32.

Going from “AGTAAGGCATGGACCGGTTTTCCCGGTAATCCGTATTTGCT (site AGTAAGGCTAG)” to “AGTAAGTCATGGACCGGTTTTCCCGGTAATCCGTATTTGAA (site AGTAAGTCTTT)”, the “recombinant UMI read abundance (log10)” value falls from 2.75 to 2.1.

First: AGTAGCACATGGACCGGTTTTCCCGGTAATCCGTATTTGAG (site AGTAGCACTCT)
Second: AGTAGGACATGGACCGGTTTTCCCGGTAATCCGTATTTGCA (site AGGAAGACTTG)
The “recombinant UMI read abundance (log10)” value of the first is lower: 1.24 for the first, 1.45 for the second.

Compared with “AGTAGGACATGGACCGGTTTTCCCGGTAATCCGTATTTGCA (site AGTAGGACTTG)”, “AGTAGGGCATGGACCGGTTTTCCCGGTAATCCGTATTTGAG (site AGTAGGGCTCT)” is lower in “recombinant UMI read abundance (log10)” value: 2.91 for the first, 1.41 for the second.

First: AGTCAAGCATGGACCGGTTTTCCCGGTAATCCGTATTTGAA (site AGTCAAGCTTT)
Second: AGTCCAACATGGACCGGTTTTCCCGGTAATCCGTATTTGTA (site AGTCCAACTTA)
The “recombinant UMI read abundance (log10)” value of the first is higher: 1.39 for the first, 0.694 for the second.

“AGTCCAACATGGACCGGTTTTCCCGGTAATCCGTATTTGTA (site CGTCCAACTTA)” and “AGTCCAACATGGACCGGTTTTCCCGGTAATCCGTATTTGTA (site GGTCCAACTTA)” are within 0.2 log units of each other in “recombinant UMI read abundance (log10)” value: 0 for the first, 0.172 for the second.

Going from “AGTCCAACATGGACCGGTTTTCCCGGTAATCCGTATTTGTA (site TGTCCAACTTA)” to “AGTCCTTCATGGACCGGTTTTCCCGGTAATCCGTATTTGCA (site AGTCCTTCTTG)”, the “recombinant UMI read abundance (log10)” value rises from 0.141 to 1.24.

Compared with “AGTCTACCATGGACCGGTTTTCCCGGTAATCCGTATTTGCT (site AGTCTACCTAG)”, “AGTGAGACATGGACCGGTTTTCCCGGTAATCCGTATTTGGT (site AATGAGACTAC)” is higher in “recombinant UMI read abundance (log10)” value: 0 for the first, 0.439 for the second.

Going from “AGTGAGACATGGACCGGTTTTCCCGGTAATCCGTATTTGGT (site ACTGAGACTAC)” to “AGTGAGACATGGACCGGTTTTCCCGGTAATCCGTATTTGGT (site AGTGAGACTAC)”, the “recombinant UMI read abundance (log10)” value rises from 0.312 to 1.21.

First: AGTGAGACATGGACCGGTTTTCCCGGTAATCCGTATTTGGT (site ATTGAGACTAC)
Second: AGTGCAACATGGACCGGTTTTCCCGGTAATCCGTATTTGGC (site AGTGCAACTGC)
The “recombinant UMI read abundance (log10)” value of the first is higher: 0.546 for the first, 0 for the second.

First: AGTGGCTCATGGACCGGTTTTCCCGGTAATCCGTATTTGAG (site AGTGGCTCTCT)
Second: AGTGGGACATGGACCGGTTTTCCCGGTAATCCGTATTTGGC (site AGTGGGACTGC)
The “recombinant UMI read abundance (log10)” value of the first is lower: 1.27 for the first, 2.85 for the second.

Going from “AGTGTAGCATGGACCGGTTTTCCCGGTAATCCGTATTTGGG (site AGTGTAGCTCC)” to “AGTGTGACATGGACCGGTTTTCCCGGTAATCCGTATTTGTA (site AGTGTGACTTA)”, the “recombinant UMI read abundance (log10)” value rises from 0.00834 to 1.91.

Compared with “AGTGTGTCATGGACCGGTTTTCCCGGTAATCCGTATTTGAC (site AATGTGTCTGT)”, “AGTGTGTCATGGACCGGTTTTCCCGGTAATCCGTATTTGAC (site ACTGTGTCTGT)” is higher in “recombinant UMI read abundance (log10)” value: 0 for the first, 0.812 for the second.

Going from “AGTGTGTCATGGACCGGTTTTCCCGGTAATCCGTATTTGAC (site AGTGTGTCTGT)” to “AGTGTGTCATGGACCGGTTTTCCCGGTAATCCGTATTTGAC (site ATTGTGTCTGT)”, the “recombinant UMI read abundance (log10)” value falls from 1.98 to 0.

Going from “AGTGTTACATGGACCGGTTTTCCCGGTAATCCGTATTTGCT (site AGTGTTACTAG)” to “AGTTAGACATGGACCGGTTTTCCCGGTAATCCGTATTTGCA (site AGGAAGACTTG)”, the “recombinant UMI read abundance (log10)” value falls from 2.01 to 1.51.

Compared with “AGTTAGACATGGACCGGTTTTCCCGGTAATCCGTATTTGCA (site AGTTAGACTTG)”, “AGTTCAGCATGGACCGGTTTTCCCGGTAATCCGTATTTGGC (site AGTTCAGCTGC)” is lower in “recombinant UMI read abundance (log10)” value: 1.93 for the first, 0.972 for the second.

First: AGTTCCACATGGACCGGTTTTCCCGGTAATCCGTATTTGGC (site AGTTCCACTGC)
Second: AGTTCCACATGGACCGGTTTTCCCGGTAATCCGTATTTGTA (site AGTTCCACTTA)
The “recombinant UMI read abundance (log10)” value of the first is higher: 1.42 for the first, 0.751 for the second.

“AGTTGGTCATGGACCGGTTTTCCCGGTAATCCGTATTTGAA (site AGTTGGTCTTT)” and “AGTTTCGCATGGACCGGTTTTCCCGGTAATCCGTATTTGGT (site AGTTTCGCTAC)” are within 0.2 log units of each other in “recombinant UMI read abundance (log10)” value: 0.435 for the first, 0.564 for the second.

Compared with “ATAAGGCCATGGACCGGTTTTCCCGGTAATCCGTATTTGAT (site ATAAGGCCTAT)”, “ATAAGGCCATGGACCGGTTTTCCCGGTAATCCGTATTTGAT (site ATAAGGCCTCT)” is lower in “recombinant UMI read abundance (log10)” value: 0.221 for the first, 0.00711 for the second.

“ATAAGGCCATGGACCGGTTTTCCCGGTAATCCGTATTTGAT (site ATAAGGCCTGT)” and “ATAAGGCCATGGACCGGTTTTCCCGGTAATCCGTATTTGAT (site ATAAGGCCTTT)” are within 0.2 log units of each other in “recombinant UMI read abundance (log10)” value: 0 for the first, 0.0201 for the second.

Going from “ATAATGCCATGGACCGGTTTTCCCGGTAATCCGTATTTGAC (site ATAAAGCCTGT)” to “ATAATGCCATGGACCGGTTTTCCCGGTAATCCGTATTTGAC (site ATAACGCCTGT)”, the “recombinant UMI read abundance (log10)” value falls from 0.589 to 0.155.

For “ATAATGCCATGGACCGGTTTTCCCGGTAATCCGTATTTGAC (site ATAAGGCCTGT)”, the “recombinant UMI read abundance (log10)” value was 0.
